{
  "source": "patent US8063022B1",
  "about": "“Methods for preventing formation of inhibitory antibodies in the setting of gene therapy” (priority 1999, dated 2011)",
  "key": {"[1]": {"tested_on": "Hemophilia B knockout mice", "assay_type": "in vivo, mouse", "conditions": "for Bethesda titer of AAV-F.IX treated mice: values of individual mice; for correction of the aPTT (in words): hemophilia B mice injected with AAV-mF.IX, with or without immunomodulation", "protocol": "A cohort of six mice were injected intramuscularly with an adeno-associated virus (AAV) vector encoding the murine F.IX transgene (total dose 1×10^11 vector genomes/mouse). Mice were bled at monthly intervals via tail vein transection, and clotting times of plasma were measured by aPTT assay. […] Two other cohorts of mice received immunomodulation around the time of vector administration in an effort to suppress inhibitor formation. One cohort (n=4) received anti-CD40L antibody at a total dose of 0.4 mg per mouse given in four divided doses (0.1 mg at days -3, 0, 3, 6) while the other cohort received cyclophosphamide (CYP, n=4) at doses of 50 mg/kg per mouse biweekly at four time points.\n(§1) Hemophilia B knockout mice were injected intramuscularly with AAV mF.IX (1×10^11) at day 0, without or with immunomodulation therapy. The mice were bled at monthly time points in citrate. The assays which were performed included a clotting based-apTT (measure of correction of hemostatic defect) assay and Bethesda titer (1 BU defined as 50% residual FIX in a 2 hour 50:50 mix). In addition, antibody assays, Western blot analysis and ELISA assays were performed. The immunomodulatory strategies used to address formation of antibodies to the transgene product were as follows: […]"}, "[2]": {"tested_on": "Hemophilia B knockout mice", "assay": "Western blot for antibody to murine F.IX in hemophilic mice injected with AAV-mF.IX", "assay_type": "in vivo, mouse", "conditions": "up to five months of observation", "protocol": "as §1"}},
  "note": "Read-outs that look alike come from different tables or passages of the source.",
  "data": [
    {"compound": "O=P1(N(CCCl)CCCl)NCCCO1", "note": "(centres unmarked) [CYP, cyclophosphamide]", "values": [
      {"measurement": "Bethesda titer of AAV-F.IX treated mice", "setting": "[1]; 1 month after vector", "result": "0/0/0"},
      {"measurement": "Bethesda titer of AAV-F.IX treated mice", "setting": "[1]; 2 months after vector", "result": "0/0/0"},
      {"measurement": "period over which aPTT correction was maintained", "setting": "[1]; after vector injection", "result": "greater than ten months"},
      {"measurement": "aPTT", "setting": "[1]; all mice at one month after vector, normal 22-39 s", "result": "28.9 to 30.9", "unit": "s"},
      {"measurement": "animals with no evidence of inhibitor antibody formation", "setting": "[1]; four doses at two week intervals, at least five months after vector", "result": "3/3"},
      {"measurement": "correction of the aPTT (in words)", "setting": "[1]", "result": "nearly complete correction"},
      {"measurement": "correction of the aPTT (in words)", "setting": "[1]; listed as cyclophosphamide", "result": "sustained correction of the aPTT"},
      {"measurement": "antibody to murine F.IX on Western blot (in words)", "setting": "[2]", "result": "did not develop antibodies"}
    ]}
  ]
}
